# Source: patent US20120004228A1, “Bis Aromatic Compounds for Use as LTC4 Synthase Inhibitors” (BIOLIPOX AB, priority 2009, published 2012)
# How the values were obtained:
# [1] = target: T1, Recombinant human LTC4 synthase (Homo sapiens, UniProt Q16873); test: In vitro LTC4 synthase assay (LTA4 to LTC4, HTRF detection); format: biochemical
# T1 construct: made in house; host or cells: Pichia pastoris ('Piccia pastoralis' [sic])
# T1 sequence (Q16873 1-150): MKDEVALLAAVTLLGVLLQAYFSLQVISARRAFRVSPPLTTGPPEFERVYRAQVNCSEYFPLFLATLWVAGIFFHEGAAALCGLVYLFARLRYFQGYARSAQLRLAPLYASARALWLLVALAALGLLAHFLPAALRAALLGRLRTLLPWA
# [2] = target: T1, Recombinant human LTC4 synthase; test: as above; format: biochemical; remark: listed apart in the source
IC50 [1],inhibition at 1 µM [2],"inhibition at 10 µM ([1]; 5 min, total concentration of title compound in the assay 10 μM)",SMILES
166 nM,95%,,"CN(c1ccc(Cl)cc1)c1ccc(C(=O)c2cc(NC(=O)c3ccc(Cl)cc3Cl)cc(C(=O)O)c2)cc1 [Example 1:1, 3-{4-[(4-Chlorophenyl)(methyl)amino]benzoyl}-5-(2,4-dichlorobenzamido)benzoic acid]"
1550 nM,,,"CN(c1ccc(Cl)cc1)c1ccc(C(=O)c2cc(C(=O)O)cc(N(C)c3cccnc3)c2)nc1 [9:42, 3-{5-[(4-Chlorophenyl)(methyl)amino]picolinoyl}-5-[methyl(3-pyridyl)amino]-benzoic acid]"
139 nM,,94%,"CCCCCCC(=O)Nc1cc(C(=O)O)cc(C(=O)c2ccc(N(C)c3ccc(Cl)cc3)cc2)c1 [Example 1:2, 3-{4-[(4-Chlorophenyl)(methyl)amino]benzoyl}-5-heptylamidobenzoic acid]"
173 nM,,,"COc1cccc(C(=O)c2cc(C(=O)O)cc(C(=O)c3ccc(N(C)c4ccc(Cl)cc4)cn3)c2)c1 [Example 15, 3-{5-[(4-Chlorophenyl)(methyl)amino]picolinoyl}-5-(3-methoxybenzoyl)benzoic acid]"
